Read-outs that look alike come from different tables or passages of the source.
Tests used:
Assay in all cases: Etest MIC of indicator carbapenems on MH II agar without/with PMBN
Type in all cases: cell-based
[1] = test system: E. cloacae 1204153 (membrane impermeability); conditions: in µg/mL
Outline: (§1)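 MH II agar ± PMBN (0 to ⅕ MICPMBN, non-inhibitory), swabbed with 0.5 McFarland inoculum; IM 32, ETP 32, MP 32 Etest strips applied; read at 16–20 h, 35° C.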

[2] = test system: E. coli 1008078 (VIM producer)
Outline: as §1

[3] = test system: K. pneumoniae KP 55 (porin−); conditions: Klebsiella pneumoniae
Outline: as §1

[4] = test system: E. aerogenes 1204050 (membrane impermeability); conditions: in µg/mL
Outline: as §1

[5] = test system: K. pneumoniae 1002015
Protocol: (§2) The determinations of antibiotic MIC were carried out on solid culture media with the Etest® method. To do this, Etest® strips (bioMérieux, France) were used: • Etest® Imipenem IM 32, and • Etest® Ertapenem ETP 32, and also solid culture media, differing from one another by virtue of their non-inhibitory concentrations of PMBN.
(§3) These solid culture media are prepared in Petri dishes (0=145 mm; V=50 ml) on a base of MH II Agar (Becton Dickinson®, United States), more or less supplemented with PMBN. The PMBN concentrations range from 0 up to concentrations equivalent to one fifth of the MIC of PMBN (⅕ MICPMBN).
(§4) Using a swab and the Retro C80™ rota-plater (bioMérieux, France), the culture media were inoculated with the bacteria, originating from an inoculum of 0.5 McFarland, prepared in 0.85% NaCl solution from colonies subcultured the day before on MH II agar.
(§5) The various Etest® strips are then deposited on the surface of the culture media. After 16 to 20 hours of incubation at 35° C., the MICS were read.
(§6) To do this, imipenem and ertapenem were used as indicator carbapenems. Non-inhibitory concentrations of PMBN, equivalent to concentrations of one tenth ( 1/10), one eighth (⅛) and one fifth (⅕) of the MIC of PMBN, were applied.
(§7) In the light of the MICPMBN values previously identified, very predominantly much higher than 300 μg/ml, the following standard concentrations were retained and applied to the bacterial strains to be tested: 50, 100, 150, 200 and 300 μg/ml.
(§8) By way of indicator carbapenems according to the invention, in addition to imipenem (IM) and ertapenem (ETP), meropenem (MP) was also tested. Like the other two antibiotics, meropenem was used in the form of Etest® strips (Etest® Meropenem MP 32 from the company bioMérieux, France).
(§9) The methods used to prepare the new culture media and to carry out the antibiotic-sensitivity tests are identical to those described above.

[6] = test system: E. coli 1204043
Protocol: as §2, §3, §4, §5, §6, §7, §8, §9

[7] = test system: E. aerogenes 1204048; conditions: in µg/mL
Protocol: as §2, §3, §4, §5, §6, §7, §8, §9

[8] = test system: K. pneumoniae 1204034; conditions: K. pneumoniae 1204034 (membrane impermeability); [PMBN] 0; Table 4a
Protocol: as §2, §3, §4, §5, §6, §7, §8, §9

## C[C@@H](O)[C@H]1C(=O)N2C(C(=O)O)=C(SCCN=CN)C[C@H]12 [IM, imipenem]
[1]; [PMBN] 0, Table 4a
  MIC: 4
[1]; [PMBN] 100, Table 4a
  MIC: 4
[1]; [PMBN] 200, Table 4a
  MIC: 2
[1]; [PMBN] 300, Table 4a
  MIC: 4
[2]; [PMBN] 0, Table 4a
  MIC: 0.38 µg/mL
[2]; [PMBN] 100, Table 4a
  MIC: 1.5 µg/mL
[2]; [PMBN] 200, Table 4a
  MIC: 0.75 µg/mL
[2]; [PMBN] 300, Table 4a
  MIC: 0.38 µg/mL
[3]; [PMBN] 0
  MIC: 0.38 µg/mL
[3]; [PMBN] 50 μg/ml
  MIC: 0.25 µg/mL
[3]; [PMBN] 100 μg/ml
  MIC: 0.25 µg/mL
[3]; [PMBN] 150 μg/ml
  MIC: 0.25 µg/mL
[3]; [PMBN] 200 μg/ml
  MIC: 0.19 µg/mL
[4]; [PMBN] 0, Table 4a
  MIC: >32
[4]; [PMBN] 100, Table 4a
  MIC: >32
[4]; [PMBN] 200, Table 4a
  MIC: >32
[4]; [PMBN] 300, Table 4a
  MIC: >32
[5]; K. pneumoniae 1002015, [PMBN] 0, Table 3
  MIC: 2 µg/mL
[5]; K. pneumoniae 1002015, [PMBN] MIC/5
  MIC: 0.25 µg/mL
[5]; K. pneumoniae 1002015, [PMBN] MIC/8
  MIC: 0.25 µg/mL
[5]; K. pneumoniae 1002015, [PMBN] MIC/10
  MIC: 0.5 µg/mL
[5]; Klebsiella pneumoniae, 1002015, K. pneumoniae 1002015 (porin−), [PMBN] 0, Table 4, read-out: MIC
  MIC: 0.5 µg/mL
[5]; Klebsiella pneumoniae, 1002015, K. pneumoniae 1002015 (porin−), [PMBN] 150 μg/ml, Table 4, read-out: MIC
  MIC: 0.38 µg/mL
[5]; Klebsiella pneumoniae, 1002015, K. pneumoniae 1002015 (porin−), [PMBN] 200 μg/ml, Table 4, read-out: MIC
  MIC: 0.25 µg/mL
[6]; E. coli 1204043 (membrane impermeability), [PMBN] 0, Table 4a, in µg/mL
  MIC: >32
[6]; E. coli 1204043 (membrane impermeability), [PMBN] 100, Table 4a, in µg/mL
  MIC: 6-8
[6]; E. coli 1204043 (membrane impermeability), [PMBN] 200, Table 4a, in µg/mL
  MIC: 3-6
[6]; E. coli 1204043 (membrane impermeability), [PMBN] 300, Table 4a, in µg/mL
  MIC: 3
[6]; E. coli 1204043, [PMBN] 0, Table 3, in µg/mL
  MIC: 8
[6]; E. coli 1204043, [PMBN] MIC/5, in µg/mL
  MIC: 1
[6]; E. coli 1204043, [PMBN] MIC/8, in µg/mL
  MIC: 1
[6]; E. coli 1204043, [PMBN] MIC/10, in µg/mL
  MIC: 2
[6]; Escherichia coli, 1204043, E. coli 1204043 (porin−), [PMBN] 0, Table 4, read-out: MIC
  MIC: 24 µg/mL
[6]; Escherichia coli, 1204043, E. coli 1204043 (porin−), [PMBN] 150 μg/ml, Table 4, read-out: MIC
  MIC: 1 µg/mL
[6]; Escherichia coli, 1204043, E. coli 1204043 (porin−), [PMBN] 200 μg/ml, Table 4, read-out: MIC
  MIC: 0.25 µg/mL
[7]; E. aerogenes 1204048 (membrane impermeability), [PMBN] 0, Table 4a
  MIC: >32
[7]; E. aerogenes 1204048 (membrane impermeability), [PMBN] 100, Table 4a
  MIC: 12
[7]; E. aerogenes 1204048 (membrane impermeability), [PMBN] 200, Table 4a
  MIC: 6
[7]; E. aerogenes 1204048 (membrane impermeability), [PMBN] 300, Table 4a
  MIC: 3
[7]; E. aerogenes 1204048, [PMBN] 0, Table 3
  MIC: 16
[7]; E. aerogenes 1204048, [PMBN] MIC/5
  MIC: 0.5
[7]; E. aerogenes 1204048, [PMBN] MIC/8
  MIC: 1
[7]; E. aerogenes 1204048, [PMBN] MIC/10
  MIC: 2
[8]
  MIC: 3 µg/mL
